Test results published in US7196094B2, “Farnesyl transferase inhibiting 6-heterocyclylmethyl quinoline and quinazoline derivatives” (Janssen Pharmaceutica, N.V., priority 2000, dated 2007).

| melting point [°C] | Compound |
| --- | --- |
| 188 | Cn1cncc1C(O)(c1ccoc1)c1ccc2c(c1)c(-c1cccc(Cl)c1)cc1nnnn12 (stereo not drawn) [Compound 3, 5-(3-chlorophenyl)-α-(3-furanyl)-α-(1-methyl-1H-imidazol-5-yl)-tetrazolo[1,5-a]quinoline-7-methanol] |
| 192 | Cn1cncc1C(O)(c1ccc2ncccc2c1)c1ccc2c(c1)c(-c1cccc(Cl)c1)nc(=O)n2C (stereo not drawn) [Compound 7, 4-(3-chlorophenyl)-6-[hydroxy(1-methyl-1H-imidazol-5-yl)-6-quinolinylmethyl]-1-methyl-2(1H)-quinazolinone] |
| 150 | Cn1cncc1C(c1ccc2c(c1)c(-c1cccc(Cl)c1)nc1nnnn12)n1ccnc1-c1ccccc1 (stereo not drawn) [Compound 10, 5-(3-chlorophenyl)-7-[(1-methyl-1H-imidazol-5-yl)(2-phenyl-1H-imidazol-1-yl)methyl]-tetrazolo[1,5-a]quinazoline] |
